{"source": "patent US20260201336A1", "about": "“REPROGRAMMED SMOOTH MUSCLE CELLS AND METHODS RELATED THERETO” (EMORY UNIVERSITY, priority 2022, published 2026)", "system": "human dermal fibroblasts (HDFs)", "experiment": "qRT-PCR of HDFs treated with ATRA for four days", "type": "cell-based", "method": "Cell culture and maintenance. Human dermal fibroblasts (HDFs) were isolated from the dermis of human juvenile foreskin and expanded in Dulbecco's Modified Eagle's medium (DMEM) (Lonza, Basel, SWI) supplemented with 10% fetal bovine serum (FBS) (Sigma-Aldrich, St. Louis, MO), 1× Antibiotic-Antimycotic (Anti-Anti) (Gibco, Waltham, MA), 1× MEM Non-Essential Amino Acids (MEM NEAA) (Gibco, Waltham, MA), and 1× GlutaMAX Supplement (GlutaMAX) (Gibco, Waltham, MA) at 37° C. with 5% CO2. The Platinum-A (Plat-A) retroviral packaging cell line (Cell Biolabs, San Diego, CA) was maintained in the same medium without Anti-Anti and used for transfection at passages four to seven. HDFs and directly reprogrammed smooth muscle cells (rSMCs) were maintained in DMEM with low glucose (HyClone, Logan, UT) supplemented with 5% FBS, Anti-Anti, MEM NEAA, and GlutaMAX.\nGeneration of directly reprogrammed SMCs. For direct reprogramming of HDFs into contractile SMCs, HDFs were seeded at a density of 1.5×10^5 cells per ml in DMEM (Lonza) supplemented with 10% FBS (Sigma-Aldrich), Anti-Anti (Gibco), MEM NEAA (Gibco), and GlutaMAX (Gibco) at 37° C. with 5% CO2. The cells were infected overnight with filtered retroviral medium containing four μg per ml of polybrene (Sigma-Aldrich) with or without 0.4, 2, or 10 μM per liter of all-trans retinoic acid (ATRA) (Sigma-Aldrich), and the viral medium was replaced with DMEM/low glucose (HyClone) supplemented with 5% FBS, Anti-Anti, MEM NEAA, and GlutaMAX with or without ATRA for 24 hrs. The viral infection was repeated twice, and the cells were maintained in DMEM/low glucose containing 5% FBS with or without ATRA for the duration of culture.\n[…] reverse transcriptase polymerase chain reaction (qRT-PCR). Total ribonucleic acid (RNA) was isolated from cells using the RNeasy Mini Kit (QIAGEN, Hilden, GE) or TRIsure (Bioline, Memphis, TN), according to the manufacturer's instructions. The extracted RNA was reverse transcribed with TaqMan Reverse Transcription Reagents (Applied Biosystems, Foster City, CA), according to the manufacturer's instructions. The synthesized cDNA was amplified with PowerUP SYBR Green Master Mix (Thermo Fisher Scientific, Waltham, MA), according to the manufacturer's instructions, and was subject to qRT-PCR with human or mouse specific primers, as shown in Table 1. Quantitative assessment of RNA levels was performed using a QuantStudio 3 96-well 0.2-ml real-time PCR system (Applied Biosystems). The relative messenger RNA (mRNA) expression was normalized to GAPDH.", "key": {"[1]": {"details": "ATRA-treated vs untreated HDFs, four days"}}}
{"smiles": "CC1=C(/C=C/C(C)=C/C=C/C(C)=C/C(=O)O)C(C)(C)CCC1", "note": "[ATRA, (2E,4E,6E,8E)-3,7-dimethyl-9-(2,6,6-trimethylcyclohexen-1-yl) nona-2,4,6,8-tetraenoic acid]", "values": [{"measurement": "expression of S100A4", "setting": "[1]", "value": "substantially reduced"}, {"measurement": "fold increase of SMC gene expression, CALD1", "setting": "[1]", "value": 1.1, "unit": "fold"}, {"measurement": "fold increase of SMC gene expression, MYH11", "setting": "[1]", "value": 6.1, "unit": "fold"}, {"measurement": "mRNA expression of STRA6 and the SMC genes", "setting": "[1]", "value": "increased"}, {"measurement": "most effective concentration for induction of SMC gene expression", "setting": "among the tested ATRA concentrations, HDFs", "value": 2, "unit": "µM"}]}
